“And” between values parts separate entries of the source, which are not always exact repeats. Equal entries are not always repeated. Toxic doses and inconclusive results are not listed. The calls were made as follows: active = survival T/C of 150% or more; inactive = T/C below 125% in these data.
System: P388 leukemia ip, CD2F1 mice, survival T/C
Assay: NCI In Vivo Anticancer Drug Screen. Data for tumor model P388 Leukemia (intraperitoneal) in CD2F1 (CDF1) mice
Settings: endpoint: median survival time, higher = longer survival
Method in brief: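 Mice carrying the transplanted tumor received test compound or vehicle. Survival was recorded in each group, and the value is the treated-group measurement divided by that of the vehicle-treated control group.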

[1] = dose: 6.25 mg/kg/injection, schedule: Q01DX009 (ip), vehicle: saline with Tween-80
[2] = dose: 50.0 mg/kg/injection, schedule: Q01DX009 (ip), vehicle: Klucel (hydroxypropylcellulose) (HPC)
[3] = dose: 100.0 mg/kg/injection, schedule: Q01DX009 (ip), vehicle: Klucel (hydroxypropylcellulose) (HPC)
[4] = dose: 200.0 mg/kg/injection, schedule: Q01DX009 (ip), vehicle: Klucel (hydroxypropylcellulose) (HPC)
[5] = dose: 100.0 mg/kg/injection, schedule: Q04DX003 (ip), vehicle: saline with Tween-80
[6] = dose: 200.0 mg/kg/injection, schedule: Q04DX003 (ip), vehicle: saline with Tween-80
[7] = dose: 60.0 mg/kg/injection, schedule: Q01DX005 (ip), vehicle: saline with Tween-80
[8] = dose: 120.0 mg/kg/injection, schedule: Q01DX005 (ip), vehicle: saline with Tween-80
[9] = dose: 400.0 mg/kg/injection, schedule: Q01DX009 (ip), vehicle: Klucel (hydroxypropylcellulose) (HPC)
[10] = dose: 50.0 mg/kg/injection, schedule: Q01DX009 (ip), vehicle: saline with Tween-80
[11] = dose: 100.0 mg/kg/injection, schedule: Q01DX009 (ip), vehicle: saline with Tween-80
[12] = dose: 200.0 mg/kg/injection, schedule: Q01DX009 (ip), vehicle: saline with Tween-80
[13] = dose: 50.0 mg/kg/injection, schedule: Q01DX005 (ip), vehicle: saline with Tween-80
[14] = dose: 100.0 mg/kg/injection, schedule: Q01DX005 (ip), vehicle: saline with Tween-80
[15] = dose: 200.0 mg/kg/injection, schedule: Q01DX005 (ip), vehicle: saline with Tween-80

Measured: T/C

Cn1c(C(Cl)Cl)nc2ccccc2c1=O
inactive: dose: 12.5 mg/kg/injection, schedule: Q04DX003 (ip), vehicle: Klucel (hydroxypropylcellulose) (HPC) 95 % of control | dose: 25.0 mg/kg/injection, schedule: Q04DX003 (ip), vehicle: Klucel (hydroxypropylcellulose) (HPC) 104 % of control | dose: 50.0 mg/kg/injection, schedule: Q04DX003 (ip), vehicle: Klucel (hydroxypropylcellulose) (HPC) 104 % of control

CC(=O)OC1c2c(C)coc2C(=O)C23OC2CCC(C)C13C (configuration not stated)
inactive: dose: 5.0 mg/kg/injection, schedule: Q01DX009 (ip), vehicle: saline with Tween-80 100 % of control | dose: 10.0 mg/kg/injection, schedule: Q01DX009 (ip), vehicle: saline with Tween-80 102 % of control | dose: 20.0 mg/kg/injection, schedule: Q01DX009 (ip), vehicle: saline with Tween-80 102 % of control | dose: 40.0 mg/kg/injection, schedule: Q01DX009 (ip), vehicle: saline with Tween-80 96 % of control

CCOC(=O)/C=C(/C)Sc1cc(O)c2ccccc2c1O
inactive: [1] 100 % of control

OC(CCC1OCCO1)(CCC1OCCO1)c1ccccc1
inactive: [2] 97 % of control | [3] 103 % of control | [4] 93 % of control

Nc1cccc2c1C(=O)c1cccc(Cl)c1C2=O
inactive: [5] 104 % of control | [6] 104 % of control | dose: 400.0 mg/kg/injection, schedule: Q04DX003 (ip), vehicle: saline with Tween-80 100 % of control

N#Cc1c(C(=O)NOCCCc2ccccc2)cc(-c2ccc(F)cc2)[nH]c1=O
inactive: [7] 107 % of control | [8] 103 % of control

ClC(Cl)(Cl)C(c1cccs1)c1cccs1
inactive: [2] 103 % of control | [3] 100 % of control | [4] 109 % of control | [9] 104 % of control

CC(=O)ON(C(C)=O)C1CCCCC1
inactive: [10] 100 % of control | [11] 97 % of control | [12] 98 % of control

OCc1ccc(OCc2ccccc2)c(OCc2ccccc2)c1
inactive: dose: 50.0 mg/kg/injection, schedule: Q04DX003 (ip), vehicle: saline 98 % of control | dose: 100.0 mg/kg/injection, schedule: Q04DX003 (ip), vehicle: saline 98 % of control | dose: 200.0 mg/kg/injection, schedule: Q04DX003 (ip), vehicle: saline 104 % of control | dose: 400.0 mg/kg/injection, schedule: Q04DX003 (ip), vehicle: saline 98 % of control

COc1cc2c(cc1O)CC1c3c(cc(O)c(OC)c3-2)CCN1C (configuration not stated)
inactive: [13] 98 % of control | [14] 87 % of control

CNC(=O)Oc1cccc2c(OC3OC(CO)C(O)C(O)C3O)cccc12 (configuration not stated)
inactive: dose: 100.0 mg/kg/injection, schedule: Q04DX003 (ip), vehicle: Klucel (hydroxypropylcellulose) (HPC) 97 % of control | dose: 200.0 mg/kg/injection, schedule: Q04DX003 (ip), vehicle: Klucel (hydroxypropylcellulose) (HPC) 106 % of control | dose: 400.0 mg/kg/injection, schedule: Q04DX003 (ip), vehicle: Klucel (hydroxypropylcellulose) (HPC) 101 % of control

CC(C1SC(=S)NC1=O)C1SC(=S)NC1=O (configuration not stated)
inactive: [13] 86 % of control | [14] 87 % of control | [15] 87 % of control

C=C=CON1CCCCC1
inactive: dose: 12.5 mg/kg/injection, schedule: Q01DX005 (ip), vehicle: saline 99 % of control | dose: 25.0 mg/kg/injection, schedule: Q01DX005 (ip), vehicle: saline 104 % of control | dose: 50.0 mg/kg/injection, schedule: Q01DX005 (ip), vehicle: saline 100 % of control and 104 % of control

CC(C)CN(CC(C)C)c1nn[nH]n1
inactive: [13] 103 % of control | [14] 100 % of control | [15] 103 % of control

CC1(C)CN(Cc2ccccc2)CCOC1N1CCOCC1 (configuration not stated)
inactive: [13] 93 % of control | [14] 101 % of control | [15] 115 % of control

COc1cc(-c2[o+]c3cc(O)cc(O)c3cc2OC2OC(CO)C(O)C(O)C2O)cc(OC)c1O (configuration not stated)
inactive: dose: 25.0 mg/kg/injection, schedule: Q01DX009 (ip), vehicle: saline sonified 100 % of control | dose: 50.0 mg/kg/injection, schedule: Q01DX009 (ip), vehicle: saline sonified 100 % of control | dose: 100.0 mg/kg/injection, schedule: Q01DX009 (ip), vehicle: saline sonified 100 % of control

CC1=CC(OC2CCCCC2)OC1=O (configuration not stated)
inactive: dose: 47.5 mg/kg/injection, schedule: Q01DX005 (ip), vehicle: Klucel (hydroxypropylcellulose) (HPC) 104 % of control | dose: 95.0 mg/kg/injection, schedule: Q01DX005 (ip), vehicle: Klucel (hydroxypropylcellulose) (HPC) 101 % of control | dose: 190.0 mg/kg/injection, schedule: Q01DX005 (ip), vehicle: Klucel (hydroxypropylcellulose) (HPC) 104 % of control

O=C(O)CSCC(=O)Nc1cc(C(F)(F)F)ccc1Cl
inactive: [7] 95 % of control | [8] 100 % of control | dose: 240.0 mg/kg/injection, schedule: Q01DX005 (ip), vehicle: saline with Tween-80 96 % of control

Clc1cc(CBr)c(CBr)cc1Cl
inactive: dose: 3.13 mg/kg/injection, schedule: Q01DX009 (ip), vehicle: saline with Tween-80 95 % of control | [1] 100 % of control | dose: 12.5 mg/kg/injection, schedule: Q04DX003 (ip), vehicle: saline with Tween-80 113 % of control | dose: 25.0 mg/kg/injection, schedule: Q04DX003 (ip), vehicle: saline with Tween-80 109 % of control

CC(NC(=O)OC(C)(C)C)C(=O)ON1C(=O)CCC1=O (configuration not stated)
inactive: [13] 108 % of control | [14] 114 % of control | [15] 104 % of control

CCOC(=O)/C=C(\I)C(=O)OCC
inactive: dose: 6.25 mg/kg/injection, schedule: Q01DX009 (ip), vehicle: Klucel (hydroxypropylcellulose) (HPC) 109 % of control | dose: 12.5 mg/kg/injection, schedule: Q01DX009 (ip), vehicle: Klucel (hydroxypropylcellulose) (HPC) 100 % of control | dose: 25.0 mg/kg/injection, schedule: Q01DX009 (ip), vehicle: Klucel (hydroxypropylcellulose) (HPC) 98 % of control

CN1C(=O)CC2(C)C1=CCc1scnc12 (configuration not stated)
inactive: dose: 7.5 mg/kg/injection, schedule: Q01DX005 (ip), vehicle: saline with Tween-80 94 % of control | dose: 15.0 mg/kg/injection, schedule: Q01DX005 (ip), vehicle: saline with Tween-80 99 % of control | dose: 30.0 mg/kg/injection, schedule: Q01DX005 (ip), vehicle: saline with Tween-80 99 % of control

CCN(CC)S(=O)(=O)c1ccc(OC)c(N)c1
inactive: [10] 90 % of control | [11] 95 % of control | [5] 90 % of control | [12] 90 % of control | [6] 90 % of control

CCO/C=C1/N=C(Cc2ccc(Br)cc2)OC1=O
inactive: [7] 94 % of control | [8] 90 % of control

CCO/C=N/c1c(C#N)cnn1C
inactive: [2] 100 % of control | [3] 98 % of control | [4] 106 % of control | [9] 103 % of control

CC(C(=O)O)n1c(=O)ssc1=O (configuration not stated)
inactive: dose: 15.0 mg/kg/injection, schedule: Q01DX005 (ip), vehicle: Klucel (hydroxypropylcellulose) (HPC) 102 % of control | dose: 30.0 mg/kg/injection, schedule: Q01DX005 (ip), vehicle: Klucel (hydroxypropylcellulose) (HPC) 93 % of control | dose: 60.0 mg/kg/injection, schedule: Q01DX005 (ip), vehicle: Klucel (hydroxypropylcellulose) (HPC) 93 % of control

C/C(=N\O)c1cc(/C(C)=N/O)cc(/C(C)=N/O)c1
inactive: dose: 50.0 mg/kg/injection, schedule: Q01DX009 (ip), vehicle: saline 108 % of control | dose: 100.0 mg/kg/injection, schedule: Q01DX009 (ip), vehicle: saline 92 % of control

Source: PubChem BioAssay AID330 (DTP/NCI, 2004)
